Test results reported in patent publication US10563263B2, “Genetic polymorphisms associated with statin response and cardiovascular diseases, methods of detection and uses thereof” (CELERA CORPORATION, priority 2010, dated 2020).

Tested on: CHD (death from CHD, nonfatal MI, or revascularization)
Assay: WOSCOPS: SNP by pravastatin treatment interaction, logistic regression (synergy index), CHD endpoint
Format: in vivo, human
Settings: for OR (synergy index): WOSCOPS
Excerpt: CARE was a secondary prevention trial and WOSCOPS was a primary prevention trial.
The CHD endpoint was defined in the analyses herein of CARE as a composite endpoint of fatal CHD, definite non-fatal MI, or revascularization, and was defined in the analyses herein of WOSCOPS as a composite endpoint of death from CHD, nonfatal MI, or revascularization. In both the CARE and WOSCOPS analyses herein, the CVD endpoint was defined as a composite endpoint of CHD or stroke. […] Revascularization, which can include percutaneous transluminal coronary angioplasty (PTCA), stent placement, and coronary artery bypass graft (CABG), are medical interventions that indicate the presence of CHD.
Cohort and case-only study designs were used to identify SNPs associated with response to statin treatment.
For each SNP, a logistic regression model having treatment status as the dependent variable and SNP as the independent predictor variable was performed, with terms for age, sex and race included in the model as covariates. The anti-log of the regression coefficient corresponding to the SNP is an estimate of the synergy index (SI) (Davis et al., “Imputing gene-treatment interactions when the genotype distribution is unknown using case-only and putative placebo analyses-a new method for the Genetics of Hypertension Associated Treatment (GenHAT) study”, Statistics in Medicine 23: (2004), pages 2413-2427). The SI is a ratio of odds ratios: for example in the CARE and WOSCOPS studies, the SI represents the factor by which the odds-ratio of statin treatment, compared with placebo, among major homozygous individuals is multiplied by in order to obtain the odds-ratio of treatment vs. placebo among heterozygous individuals; and multiplied by a second time to obtain the odds-ratio of treatment vs. placebo in minor homozygous individuals. The case-only study design results in a valid estimate of the SI under the assumption that genotype and treatment are independent in the population. In a randomized clinical trial, genotype and treatment are independent by design. The p-value for the regression coefficient corresponding to the SNP results from a test of the null hypothesis that the regression coefficient is equal to zero (SI is equal to one) and thus small p-values indicate the SI is unlikely equal to one and that the effect of treatment likely differs by genotype. […]

CC[C@H](C)C(=O)O[C@H]1C[C@H](O)C=C2C=C[C@H](C)[C@H](CC[C@@H](O)C[C@@H](O)CC(=O)O)[C@H]21 [Pravastatin, pravastatin]
WOSCOPS OR (rs4726711, source CaseOnly, model add, endpoint CHD): 0.62 | OR (synergy index) (rs4736802 allele G, DOM model, Imputed): 1.614 | OR (synergy index) (rs4760785 allele A, ADD model, Imputed): 0.7714 | OR (synergy index) (rs4760785 allele A, DOM model, Imputed): 0.5986 | OR (synergy index) (rs4760894 allele T, ADD model, Imputed): 0.7714 | OR (synergy index) (rs4760894 allele T, DOM model, Imputed): 0.5986 | OR (synergy index) (rs4760895 allele A, ADD model, Imputed): 0.7714 | OR (synergy index) (rs4760895 allele A, DOM model, Imputed): 0.5986 | OR (synergy index) (rs4764738 allele A, ADD model, Imputed): 1.555 | OR (synergy index) (rs4764974 allele T, ADD model, Imputed): 1.512 | OR (synergy index) (rs4798366 allele G, REC model, Imputed): 2.304 | WOSCOPS OR (rs4830819, source CaseOnly, model add, endpoint CHD): 0.66 | OR (synergy index) (rs4836502 allele T, DOM model, Imputed): 0.6887 | OR (synergy index) (rs4836507 allele C, DOM model, Imputed): 0.6884 | OR (synergy index) (rs4836744 allele A, ADD model, Imputed): 0.7704 | OR (synergy index) (rs4836744 allele A, DOM model, Imputed): 0.6637 | WOSCOPS OR (rs4836745, Source caseonly): 0.65 | OR (synergy index) (rs4848944 allele C, REC model, Genotyped): 0.464 | OR (synergy index) (rs4851529 allele A, DOM model, Imputed): 0.5663 | OR (synergy index) (rs4851531 allele T, DOM model, Imputed): 0.5588 | WOSCOPS OR (rs4870109, Source caseonly): 1.47 | OR (synergy index) (rs4878214 allele A, ADD model, Imputed): 0.7413 | OR (synergy index) (rs4880803 allele A, ADD model, Imputed): 0.7588 | OR (synergy index) (rs4896568 allele T, DOM model, Imputed): 0.5426 | WOSCOPS OR (rs4924215, source CaseOnly, model dom, endpoint CHD): 1.46 | OR (synergy index) (rs4938851 allele T, DOM model, Imputed): 1.301 | OR (synergy index) (rs4964416 allele C, DOM model, Imputed): 0.6799 | WOSCOPS OR (rs5750116, source cohort, model dom, endpoint CHD): 1.45 | OR (synergy index) (rs5756669 allele C, DOM model, Imputed): 1.541 | OR (synergy index) (rs6033138 allele C, ADD model, Imputed): 1.407 | OR (synergy index) (rs6033138 allele C, REC model, Imputed): 1.414 | OR (synergy index) (rs6040619 allele C, ADD model, Imputed): 1.488 | OR (synergy index) (rs6040619 allele C, REC model, Imputed): 1.688 | OR (synergy index) (rs6040625 allele T, ADD model, Imputed): 1.479 | OR (synergy index) (rs6040625 allele T, REC model, Imputed): 1.634 | OR (synergy index) (rs6040630 allele A, ADD model, Imputed): 1.42 | OR (synergy index) (rs6040630 allele A, REC model, Imputed): 1.462 | OR (synergy index) (rs6040633 allele A, ADD model, Imputed): 1.407 | WOSCOPS OR (rs6080603, source CaseOnly, model dom, endpoint CHD): 0.68 | WOSCOPS OR (rs6474228, Source caseonly): 1.83 | WOSCOPS OR (rs6491586, source CaseOnly, model dom, endpoint CHD): 1.78 | WOSCOPS OR (rs6505669, source CaseOnly, model dom, endpoint CHD): 1.37 | WOSCOPS OR (rs6585412, Source caseonly): 1.44 | WOSCOPS OR (rs6998016, Source caseonly): 9.63 | WOSCOPS OR (rs7018577, Source caseonly): 1.94 | WOSCOPS OR (rs7078016, Source caseonly): 1.44 | WOSCOPS OR (rs7193741, source cohort, model rec, endpoint CHD): 1.87 | WOSCOPS OR (rs7305949, Source caseonly): 1.74 | WOSCOPS OR (rs7332076, Source caseonly): 2.18 | WOSCOPS OR (rs7449527, Source caseonly): 1.71 | WOSCOPS OR (rs7521242, source CaseOnly, model add, endpoint CHD): 0.74 | WOSCOPS OR (rs7625204, source cohort, model add, endpoint CHD): 1.38 | WOSCOPS OR (rs7629632, source CaseOnly, model dom, endpoint CHD): 1.72 | WOSCOPS OR (rs7705993, source CaseOnly, model add, endpoint CHD): 1.44 | WOSCOPS OR (rs7742508, source cohort, model dom, endpoint CHD): 1.93 | WOSCOPS OR (rs7839562, Source caseonly): 1.63 | WOSCOPS OR (rs7916629, Source caseonly): 1.66 | WOSCOPS OR (rs9446187, source cohort, model dom, endpoint CHD): 2.05 | WOSCOPS OR (rs9859901, source CaseOnly, model add, endpoint CHD): 0.41 | WOSCOPS OR (rs10120126, source CaseOnly, model dom, endpoint CHD): 0.48 | WOSCOPS OR (rs10155047, source cohort, model add, endpoint CHD): 0.50 | WOSCOPS OR (rs10189905, source cohort, model add, endpoint CHD): 0.56 | WOSCOPS OR (rs10305439, source CaseOnly, model dom, endpoint CHD): 0.63 | WOSCOPS OR (rs10429616, source cohort, model rec, endpoint CHD): 1.54 | WOSCOPS OR (rs10497883, Source caseonly): 0.67 | WOSCOPS OR (rs10500736, source cohort, model dom, endpoint CHD): 0.52 | WOSCOPS OR (rs10774580, Source caseonly): 0.56 | WOSCOPS OR (rs10814422, source CaseOnly, model dom, endpoint CHD): 0.46 | WOSCOPS OR (rs10935907, source CaseOnly, model dom, endpoint CHD): 1.49 | WOSCOPS OR (rs10945874, Source caseonly): 1.24 | WOSCOPS OR (rs10973013, source CaseOnly, model dom, endpoint CHD): 0.48 | WOSCOPS OR (rs11138314, Source cohort): 0.59 | WOSCOPS OR (rs11148285, Source caseonly): 2.30 | WOSCOPS OR (rs11585647, Source caseonly): 0.67 | WOSCOPS OR (rs11721179, Source caseonly): 0.60 | WOSCOPS OR (rs12556591, source CaseOnly, model add, endpoint CHD): 0.66 | WOSCOPS OR (rs13126170, Source caseonly): 0.78 | WOSCOPS OR (rs13129010, Source caseonly): 1.90 | WOSCOPS OR (rs13137776, source CaseOnly, model add, endpoint CHD): 0.62 | WOSCOPS OR (rs13279522, source cohort, model add, endpoint CHD): 0.63 | WOSCOPS OR (rs13318232, source CaseOnly, model dom, endpoint CHD): 0.40 | WOSCOPS OR (rs13431868, source CaseOnly, model dom, endpoint CHD): 1.42 | WOSCOPS OR (rs16885715, Source caseonly): 1.58 | WOSCOPS OR (rs17002013, Source caseonly): 1.66 | WOSCOPS OR (rs17076974, source cohort, model add, endpoint CHD): 1.32 | WOSCOPS OR (rs17138705, source CaseOnly, model add, endpoint CHD): 0.70 | WOSCOPS OR (rs17688430, Source caseonly): 0.71 | WOSCOPS OR (rs17706237, source CaseOnly, model dom, endpoint CHD): 1.52
